Data set [1] deals with MLLr leukemia cell line MV4-11. Description: Cell proliferation assay MV4;11 (CellTiter-Glo, 72 hours). Format: cell-based. The note with it: Homo sapiens; MV4-11 cells, 72 hours, CellTiter-Glo; read-out: MV4; 11 IC50. How it is done:
Compounds were evaluated for its capacity to inhibit the proliferation of the MLLr leukemia cell line MV4-11 that harbors an MLL1-AF4 fusion protein. MV4-11 cells were cultured for 72 hours with limiting dilutions of compounds and viability was measured using CellTiter-Glo.
Compounds were dissolved to obtain as 10 mM solution in DMSO. The stock was diluted 1:5 to the top concentration of 2 mM in 100% DMSO. For IC50 determination, serial 1:3.16 dilutions were prepared in 100% DMSO by diluting 20 μL into 43.5 μL of DMSO for 8 concentrations. Each prepared DMSO solution were further diluted 1:500 in the cell culture media to obtain the 2× dosing solutions. The final concentrations of tested compounds in the cell culture media ranged from 0.632 nM to 2000 nM.
MV4-11 cells were cultured in IMDM with 10% FBS and 1× Penicillin-Streptomycin at 5% CO2 and 37° C. A cell suspension was prepared containing 15,000 cells/ml in the culture medium and 100 μL of this suspension was added per well to a 96-well cell culture plate. Then, 100 μL of 2× dosing media containing test compounds were added bringing the total volume to 200 μL. These cells were cultured for 72 hours at 37° C. and 5% CO2 in a humidified incubator.
After 72 hours, the cultured cells were mixed and 100 μL was transferred to a 96-well black plate. Cell Titer Glo (100 μl) was then added to this plate. The plate was mixed with shaking for 15 mins at RT, the luminescence was then measured using Tecan Spark 20M spectrophotometer. Cell Viability (%) was determined by RLU of test/RLU average vehicle control*100 and % max inhibition was determined by 100−(% cell viability remaining at the top concentration of compound).
(In ATP-based viability assays light output follows the ATP content of the culture.)

The target of data set [2] is hERG (Homo sapiens, UniProt Q12809). Description: Patch clamp assay (hERG tail currents, whole-cell). For orientation: In patch-clamp work, channel activity is measured electrically.
Sequence of hERG (Q12809 whole entry): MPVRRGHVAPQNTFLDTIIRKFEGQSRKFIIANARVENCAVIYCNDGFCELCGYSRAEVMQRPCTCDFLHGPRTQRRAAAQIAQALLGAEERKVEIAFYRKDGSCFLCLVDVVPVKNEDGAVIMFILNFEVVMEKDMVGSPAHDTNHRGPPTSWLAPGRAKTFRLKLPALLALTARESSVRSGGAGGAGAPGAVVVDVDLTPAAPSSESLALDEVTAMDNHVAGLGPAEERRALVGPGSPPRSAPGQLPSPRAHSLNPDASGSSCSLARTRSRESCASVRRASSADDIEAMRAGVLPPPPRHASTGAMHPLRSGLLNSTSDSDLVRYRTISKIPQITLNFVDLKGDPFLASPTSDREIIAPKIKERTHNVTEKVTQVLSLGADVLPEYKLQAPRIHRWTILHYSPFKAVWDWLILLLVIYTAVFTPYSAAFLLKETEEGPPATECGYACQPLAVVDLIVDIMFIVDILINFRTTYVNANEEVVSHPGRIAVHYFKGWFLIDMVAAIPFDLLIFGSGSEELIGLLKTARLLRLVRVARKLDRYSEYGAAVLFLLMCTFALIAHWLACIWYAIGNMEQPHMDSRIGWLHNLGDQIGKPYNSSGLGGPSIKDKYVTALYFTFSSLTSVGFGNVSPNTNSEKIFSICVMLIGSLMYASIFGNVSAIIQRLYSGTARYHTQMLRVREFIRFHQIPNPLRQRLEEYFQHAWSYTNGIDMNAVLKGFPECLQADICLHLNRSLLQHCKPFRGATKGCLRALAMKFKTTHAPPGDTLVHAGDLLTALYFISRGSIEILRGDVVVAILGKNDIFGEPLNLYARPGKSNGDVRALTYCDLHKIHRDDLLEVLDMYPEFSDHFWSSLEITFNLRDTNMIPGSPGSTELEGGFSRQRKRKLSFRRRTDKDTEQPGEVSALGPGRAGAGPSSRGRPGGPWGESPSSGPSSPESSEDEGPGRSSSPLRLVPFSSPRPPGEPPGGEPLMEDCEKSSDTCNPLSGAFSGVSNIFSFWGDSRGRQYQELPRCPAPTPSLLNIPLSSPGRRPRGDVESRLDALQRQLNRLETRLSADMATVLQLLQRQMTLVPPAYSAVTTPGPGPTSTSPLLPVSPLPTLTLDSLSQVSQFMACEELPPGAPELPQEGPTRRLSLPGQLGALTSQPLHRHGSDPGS

pIC50: −log10 of the molar value.

As for `CC(C)N(C(=O)c1cc(F)ccc1Oc1cncnc1N1CC2(CCN(C[C@@H]3CC[C@@H](NS(=N)(=O)c4ccccc4)CO3)CC2)C1)C(C)C` (mixture of isomers) [Example 228, 5-Fluoro-N,N-diisopropyl-2-((4-(7-(((2S,5R)-5-(phenylsulfonoamidimidamido)tetrahydro-2H-pyran-2-yl)methyl)-2,7-diazaspiro[3.5]nonan-2-yl)pyrimidin-5-yl)oxy)benzamide], the pIC50 in data set [1] is > 7.00. Same read-out and setting: then `CC[S@@](=N)(=O)N[C@@H]1CC[C@@H](CN2CCC3(CC2)CN(c2ncncc2Oc2ccc(F)cc2C(=O)N(C(C)C)C(C)C)C3)OC1` (single isomer, unassigned) [Example 226], with 6.00 to 7.00; and `CC[S@](=N)(=O)N[C@@H]1CC[C@@H](CN2CCC3(CC2)CN(c2ncncc2Oc2ccc(F)cc2C(=O)N(C(C)C)C(C)C)C3)OC1` (single isomer, unassigned) [Example 227], with > 7.00; and `CC(C)N(C(=O)c1cc(F)ccc1Oc1cncnc1N1CC2(CCN(C[C@@H]3CC[C@@H](N[S@@](=N)(=O)c4ccccc4)CO3)CC2)C1)C(C)C` (single isomer, unassigned) [Example 229], with > 7.00. On the same count and under the same terms, then `CC(C)N(C(=O)c1cc(F)ccc1Oc1cncnc1N1CC2(CCN(C[C@@H]3CC[C@@H](N[S@](=N)(=O)c4ccccc4)CO3)CC2)C1)C(C)C` (single isomer, unassigned) [Example 230], with > 7.00. On the same count and under the same terms, the value for `CCS(=O)(=O)N[C@@H]1CC[C@@H](CN2CCC3(CC2)CN(c2ncncc2Oc2ccc(F)cc2C(=O)N(C(C)C)[C@@H]2CC[C@H]2O)C3)OC1` (single isomer, unassigned) [Example 256] was > 7.00; that for `CCS(=O)(=O)N[C@@H]1CC[C@@H](CN2CCC3(CC2)CN(c2ncncc2Oc2ccc(F)cc2C(=O)N(C(C)C)[C@H]2CC[C@@H]2O)C3)OC1` (single isomer, unassigned) [Example 257] was 6.00 to 7.00; that for `CC(C)N(C)C(=O)c1cc(F)ccc1Oc1cncnc1N1CC2(CCN(C[C@@H]3CC[C@@H](NS(=O)(=O)c4ccn(C)n4)CO3)CC2)C1` [Example 53, Fluoro-N-isopropyl-N-methyl-2-((4-(7-(((2S,5R)-5-((1-methyl-1H-pyrazole)-3-sulfonamido)tetrahydro-2H-pyran-2-yl)methyl)-2,7-diazaspiro[3.5]nonan-2-yl)pyrimidin-5-yl)oxy)benzamide] was > 7.00.

For `Cc1nc(S(=O)(=O)N[C@@H]2CC[C@@H](CN3CCC4(CC3)CN(c3ncncc3Oc3ccc(F)cc3C(=O)N(C)C(C)C)C4)OC2)cs1` [Example 54, 5-Fluoro-N-isopropyl-N-methyl-2-((4-(7-(((2S,5R)-5-((2-methylthiazole)-4-sulfonamido)tetrahydro-2H-pyran-2-yl)methyl)-2,7-diazaspiro[3.5]nonan-2-yl)pyrimidin-5-yl)oxy)benzamide], the pIC50 in data set [1] was > 7.00. Consider `CCN(C(=O)c1cc(F)ccc1Oc1cncnc1N1CC2(CCN(C[C@@H]3CC[C@@H](NS(=O)(=O)C4CCOCC4)CO3)CC2)C1)C(C)C` [Example 67, N-Ethyl-5-fluoro-N-isopropyl-2-((4-(7-(((2S,5R)-5-((tetrahydro-2H-pyran)-4-sulfonamido)tetrahydro-2H-pyran-2-yl)methyl)-2,7-diazaspiro[3.5]nonan-2-yl)pyrimidin-5-yl)oxy)benzamide], for which the pIC50 in data set [1] is > 7.00. Same read-out and setting: then `CCN(C(=O)c1cc(F)ccc1Oc1cncnc1N1CC2(CCN(C[C@@H]3CC[C@@H](NS(=O)(=O)N4CC(F)(F)C4)CO3)CC2)C1)C(C)C` [Example 70, 2-((4-(7-(((2S,5R)-5-((3,3-Difluoroazetidine)-1-sulfonamido)tetrahydro-2H-pyran-2-yl)methyl)-2,7-diazaspiro[3.5]nonan-2-yl)pyrimidin-5-yl)oxy)-N-ethyl-5-fluoro-N-isopropylbenzamide], with > 7.00; and `CCN(C(=O)c1cc(F)ccc1Oc1cncnc1N1CC2(CCN(C[C@@H]3CC[C@@H](NS(=O)(=O)c4ccc(=O)n(C)c4)CO3)CC2)C1)C(C)C` [Example 74, N-Ethyl-5-fluoro-N-isopropyl-2-((4-(7-(((2S,5R)-5-((1-methyl-6-oxo-1,6-dihydropyridine)-3-sulfonamido)tetrahydro-2H-pyran-2-yl)methyl)-2,7-diazaspiro[3.5]nonan-2-yl)pyrimidin-5-yl)oxy)benzamide], with > 7.00; and `CC(C)N(C(=O)c1cc(F)ccc1Oc1cncnc1N1CC2(CCN(C[C@@H]3CC[C@@H](NS(=O)(=O)C4CCOCC4)CO3)CC2)C1)C(C)C` [Example 79], with > 7.00.

Take `CC(C)N(C(=O)c1cc(F)ccc1Oc1cncnc1N1CC2(CCN(C[C@@H]3CC[C@@H](NS(=O)(=O)c4ccc(=O)n(C)c4)CO3)CC2)C1)C(C)C` [Example 92, 5-Fluoro-N,N-diisopropyl-2-((4-(7-(((2S,5R)-5-((1-methyl-6-oxo-1,6-dihydropyridine)-3-sulfonamido)tetrahydro-2H-pyran-2-yl)methyl)-2,7-diazaspiro[3.5]nonan-2-yl)pyrimidin-5-yl)oxy)benzamide]: the pIC50 in data set [1] was > 7.00. As for `CC(C)N(C(=O)c1cc(F)ccc1Oc1cncnc1N1CC2(CCN(C[C@@H]3CC[C@@H](NS(=O)(=O)N4CCC4)CO3)CC2)C1)C1COC1` [Example 248, 2-((4-(7-(((2S,5R)-5-(Azetidine-1-sulfonamido)tetrahydro-2H-pyran-2-yl)methyl)-2,7-diazaspiro[3.5]nonan-2-yl)pyrimidin-5-yl)oxy)-5-fluoro-N-isopropyl-N-(oxetan-3-yl)benzamide], in data set [2] (30 μM compound), the “hERG % Remaining” value was “+++ (≥66%)”. The same measure, in the same setting: the value for `CC(C)N(C(=O)c1cc(F)ccc1Oc1cncnc1N1CC2(CCN(C[C@@H]3CC[C@@H](NS(=O)(=O)N(C)C)CO3)CC2)C1)C1COC1` [Example 249, 2-((4-(7-(((2S,5R)-5-((N,N-Dimethylsulfamoyl)amino)tetrahydro-2H-pyran-2-yl)methyl)-2,7-diazaspiro[3.5]nonan-2-yl)pyrimidin-5-yl)oxy)-5-fluoro-N-isopropyl-N-(oxetan-3-yl)benzamide] was “+++ (≥66%)”. With `CCS(=O)(=O)N[C@@H]1CC[C@@H](CN2CCC3(CC2)CN(c2ncncc2Oc2ccc(F)cc2C(=O)N(C(C)C)[C@@H]2CC[C@@H]2O)C3)OC1` [Example 258, 2-((4-(7-(((2S,5R)-5-(Ethylsulfonamido)tetrahydro-2H-pyran-2-yl)methyl)-2,7-diazaspiro[3.5]nonan-2-yl)pyrimidin-5-yl)oxy)-5-fluoro-N-((1R,2S)-2-hydroxycyclobutyl)-N-isopropylbenzamide], the “hERG % Remaining” value in data set [2] (10 μM compound) was “+++ (≥66%)”; in data set [2] (30 μM compound), “++ (233% and ≤66%)”. Consider `CCN(C(=O)c1cc(F)ccc1Oc1cncnc1N1CC2(CCN(C[C@H]3CC[C@H](NS(=O)(=O)CC)CC3)CC2)C1)C(C)C` [SNDX-5613], for which the “hERG % Remaining” value in data set [2] (1 μM compound) was “+++ (≥66%)”; in data set [2] (3 μM compound), “+++ (≥66%)”; in data set [2] (10 μM compound) it was “++ (233% and ≤66%)”; in data set [2] (30 μM compound) it was “++ (233% and ≤66%)”; in data set [2] (100 μM compound), “+ (<33%)”. Also, the “hERG IC50 (μM)” value in data set [2] (hERG stably transfected HEK 293 cells) is “+ (<25 PM)”.

Values taken from US20240400564A1 (Syndax Pharmaceuticals, Inc, priority 2021, published 2024).
